The source of these data is US20050256204A1, “Topical phenyl-epinephrine Rosacea treatment” (priority 2004, published 2005).

In assay [1] the test system is non-mucous membrane skin tissues. To be noted: topical application; phenyl-epinephrine strength of at least one percent; water-based gel. From the text: The topical applications of phenyl-epinephrine used in steps 104, 106, and 108, can include the use of a skin lotion comprising phenyl-epinephrine in solution with a strength sufficient for transdermal absorption by non-mucous membrane skin tissues. Such phenyl-epinephrine is the only active ingredient, and it is preferably compounded with a water-based gel. Such gel provides for holding the phenyl-epinephrine in contact with a user's skin for a minimal residence time sufficient to induce vasoconstriction.

Assay [2] concerns skin reddening symptoms of Rosacea and other facial skin disorders. To be noted: topical applications in a cosmetic lotion, applied as needed. An excerpt: For example, using step 106 alone. Further embodiments of the present invention therefore comprise phenyl-epinephrine cosmetic skin lotion. The skin lotion is applied as needed by the user, e.g., just before going out in public.

For `CNC[C@H](O)c1cccc(O)c1` [phenyl-epinephrine], in assay [1], the vasoconstriction result was “produced the desired vasoconstriction”. Further, the “relief of skin reddening symptoms” value in assay [2] was “temporary relief of skin reddening symptoms”.
